What all share (type): cell-based
In one experiment the test system is VCaP cells. In words: Inhibition of proliferation of VCaP cells (WST-8). As to conditions: Homo sapiens, read-out: IC50 for inhibiting the proliferation of VCaP cells. The essentials:
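VCaP FGC cells, 15000 per well in DMEM with 10% FBS, were cultured at 37° C, 5% CO2. On day nine, WST-8 reagent was added to read proliferation.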
Background: Formazan colour is commonly taken as a measure of viable cells.

The target of experiment [1] is T1, AR protein (Homo sapiens, UniProt P10275, T878A).
T1 construct: degradation activity of the compounds disclosed in the present disclosure on AR protein in LNCaP cells; host or cells: LNCaP FGC
T1 sequence (P10275 1-920 T878A): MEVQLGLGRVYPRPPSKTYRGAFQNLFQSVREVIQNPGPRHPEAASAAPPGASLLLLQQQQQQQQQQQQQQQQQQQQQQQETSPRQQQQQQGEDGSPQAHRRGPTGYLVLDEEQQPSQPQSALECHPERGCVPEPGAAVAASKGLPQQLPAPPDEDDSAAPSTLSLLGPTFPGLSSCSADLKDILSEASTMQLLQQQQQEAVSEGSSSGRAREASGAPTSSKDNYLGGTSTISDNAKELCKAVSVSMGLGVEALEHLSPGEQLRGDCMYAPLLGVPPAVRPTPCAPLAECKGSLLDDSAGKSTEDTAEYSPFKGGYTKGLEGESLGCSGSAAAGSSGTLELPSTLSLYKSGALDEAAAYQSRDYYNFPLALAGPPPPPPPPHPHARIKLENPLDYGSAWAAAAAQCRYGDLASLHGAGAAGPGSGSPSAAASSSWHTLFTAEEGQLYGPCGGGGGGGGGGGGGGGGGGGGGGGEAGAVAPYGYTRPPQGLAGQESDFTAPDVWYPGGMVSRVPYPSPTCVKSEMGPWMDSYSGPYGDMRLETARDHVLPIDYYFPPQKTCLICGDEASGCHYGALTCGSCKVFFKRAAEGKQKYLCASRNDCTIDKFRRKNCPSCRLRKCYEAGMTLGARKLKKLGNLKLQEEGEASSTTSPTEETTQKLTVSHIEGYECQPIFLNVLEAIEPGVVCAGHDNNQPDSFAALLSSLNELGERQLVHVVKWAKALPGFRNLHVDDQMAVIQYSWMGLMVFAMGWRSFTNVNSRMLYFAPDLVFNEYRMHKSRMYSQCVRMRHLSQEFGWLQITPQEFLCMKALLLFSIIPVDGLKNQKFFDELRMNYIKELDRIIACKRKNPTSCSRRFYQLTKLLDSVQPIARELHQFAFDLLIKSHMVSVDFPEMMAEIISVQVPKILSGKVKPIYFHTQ
Put plainly: Degradation of AR protein in LNCaP cells (Western blot). As to conditions: for inhibition at 0.01 µM: read-out: Degradation rates of the AR protein in LNCaP cells, 10 nM (%); for inhibition at 0.1 µM: read-out: Degradation rates of the AR protein in LNCaP cells, 100 nM (%). The essentials: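 AR assessed by SDS-PAGE/Western blot with infrared imaging; band greyscale normalised to GAPDH gave percent degradation.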

A further experiment concerns LNCaP FGC cells. Put plainly: Inhibition of proliferation of LNCaP cells (WST-8). As to conditions: Homo sapiens, LNCaP, 96 h. The procedure:
The cells were cultured in a cell culture incubator with 5% CO2 at 37° C. overnight. […] On the sixth day, 96 well plates were taken out, and 20 μL of WST-8 (Beytime, C0040) reagent was added to each well.

Experiment [2] concerns the target T2, AR protein (Homo sapiens, UniProt P10275).
T2 construct: degradation activity of the compounds disclosed in the present disclosure on AR protein in VCaP cells; host or cells: VCaP
T2 sequence (P10275 1-920): T1 sequence (P10275 1-920 T878A) with A878T
In words: Degradation of AR protein in VCaP cells (Western blot). The following applies: 8 hours; for inhibition at 0.01 µM: compound at 10 nM, read-out: Degradation rate of the AR protein in VCaP cells, 10 nM (%); for inhibition at 0.1 µM: compound at 100 nM, read-out: Degradation rate of the AR protein in VCaP cells, 100 nM (%). The method, boiled down:
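VCaP cells treated with compound alongside solvent controls for 8 h, then lysed in RIPA and protein quantified by BCA. AR detected by SDS-PAGE/Western blot with infrared imaging. Degradation rate calculated from band grayscale, with GAPDH as internal reference.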

The mark [3] stands for this setting: VCaP cells, 168 hours, WST-8 absorbance at 450 nm.
Setting [4] is: LNCaP cells, compound 10 nM, 8 hours, Western blot grayscale, GAPDH internal reference.
The mark [5] stands for this setting: LNCaP cells, compound 100 nM, 8 hours, Western blot grayscale, GAPDH internal reference.
The mark [6] stands for this setting: LNCaP FGC cells, 96 hours, WST-8 absorbance at 450 nm, read-out: IC50 for inhibiting the proliferation of LNCaP cells.

Here are results for twelve compounds from patent publication US20260234157A1, “COMPOUND AND METHOD FOR TARGETED DEGRADATION OF ANDROGEN RECEPTOR” (Gan & Lee Pharmaceuticals Co., Ltd., priority 2023, published 2026).

Substitutions are numbered along the chain they refer to. Like-named read-outs stand apart in the source and are kept apart here.

On to `COc1cc(O[C@H]2C(C)(C)[C@H](NC(=O)c3ccc(N4CCC(F)(CN5CCC6(CC5)COc5cc7c(cc56)C(=O)N(C5CCC(=O)NC5=O)C7=O)CC4)cc3)C2(C)C)ccc1C#N` (stereo partly drawn) [Compound 273], for which the IC50 was found to be 970 nM with VCaP cells (setting [3]) and 96400 nM in the experiment on LNCaP FGC cells (setting [6]). Further, the inhibition at 0.01 µM at AR protein [1] (setting [4]) is 2%; on AR protein [2] it was -20%. For the same compound, the inhibition at 0.1 µM on AR protein [1] (setting [5]) was 26%; on AR protein [2], 7%.

For the compound `N#Cc1ccc(O[C@H]2CC[C@H](NC(=O)c3ccc(N4CC(N5CCC6(CCc7cc8c(cc7O6)C(=O)N(C6CCC(=O)NC6=O)C8=O)CC5)C4)nn3)CC2)cc1Cl` (stereo partly drawn) [Compound 25], the IC50 stood at 910 nM in the experiment on VCaP cells (VCaP, 168 h) and 390 nM in the experiment on LNCaP FGC cells (read-out: IC50 for inhibiting the proliferation of LNCaP cells, LNCaP FGC cells, 96 hours, WST-8 absorbance at 450 nm). Besides, the inhibition at 0.01 µM on AR protein [1] (LNCaP, 8 h) came out at 49%; on AR protein [2], 13%. Further, the inhibition at 0.1 µM at AR protein [1] (LNCaP, 8 h) came out at 43%; at AR protein [2], 32%.

As to `COC1(CN2CC3(CCc4ccc5c(c4O3)C(=O)N(C3CCC(=O)NC3=O)C5=O)C2)CCN(c2ccc(C(=O)N[C@H]3CC[C@H](Oc4ccc(C#N)c(Cl)c4)CC3)nn2)CC1` (stereo partly drawn) [Compound 165], the IC50 is > 90000 nM with VCaP cells (setting [3]) and 96600 nM in the experiment with LNCaP FGC cells (setting [6]). In addition, the inhibition at 0.01 µM is 28% on AR protein [1] (setting [4]) and -43% at AR protein [2]. In addition, the inhibition at 0.1 µM at AR protein [1] (setting [5]) turned out to be 25%; on AR protein [2], 23%.

Turning to `COc1cc(O[C@H]2CC[C@H](NC(=O)c3ccc(N4CCC(CN5CCC6(CC5)COc5c6ccc6c5C(=O)N(C5CCC(=O)NC5=O)C6=O)(OC)CC4)nn3)CC2)ccc1C#N` (stereo partly drawn) [Compound 272], the IC50 in the experiment with VCaP cells (setting [3]) is 63 nM; with LNCaP FGC cells (setting [6]), 100 nM. The values for the inhibition at 0.01 µM at AR protein [1] (setting [4]) and on AR protein [2] were 45% and 38%, respectively. Also, the inhibition at 0.1 µM was 52% at AR protein [1] (setting [5]) and 75% at AR protein [2].

As for `N#Cc1ccc(O[C@H]2CC[C@H](NC(=O)c3ccc(N4CC5(CC(N6CCC7(CCc8cc9c(cc8O7)C(=O)N(C7CCC(=O)NC7=O)C9=O)CC6)C5)C4)nn3)CC2)cc1Cl` (stereo partly drawn) [Compound 32], the IC50 in the experiment on VCaP cells (setting [3]) came to 520 nM; with LNCaP FGC cells (setting [6]) it was 3600 nM. Further, the results for the inhibition at 0.01 µM on AR protein [1] (setting [4]) and at AR protein [2] were 22% and 58%, respectively. Besides, the inhibition at 0.1 µM on AR protein [1] (setting [5]) is 53%; at AR protein [2] it was 64%.

For `COc1cc(O[C@H]2CC[C@H](NC(=O)c3ccc(N4CCC(C#N)(CN5CCC6(CC5)COc5c6ccc6c5C(=O)N(C5CCC(=O)NC5=O)C6=O)CC4)nn3)CC2)ccc1C#N` (stereo partly drawn) [Compound 229], the IC50 was 15 nM with VCaP cells (setting [3]) and 330 nM in the experiment on LNCaP FGC cells (setting [6]). Also, the inhibition at 0.01 µM was 49% on AR protein [1] (setting [4]) and 33% on AR protein [2]. The inhibition at 0.1 µM at AR protein [1] (setting [5]) was 59%; at AR protein [2], 73%.

With `N#Cc1ccc(O[C@H]2CC[C@H](NC(=O)c3ccc(N4CC[C@H](CN5CCC6(CC5)COc5cc7c(cc5C6)C(=O)N(C5CCC(=O)NC5=O)C7=O)C4)nn3)CC2)cc1Cl` (stereo partly drawn) [Compound 74], the IC50 in the experiment with VCaP cells (setting [3]) and in the experiment with LNCaP FGC cells (setting [6]) was 600 nM throughout. Also, the values for the inhibition at 0.01 µM on AR protein [1] (setting [4]) and on AR protein [2] were 39% and 47%, respectively. Further, the inhibition at 0.1 µM at AR protein [1] (setting [5]) is 79%; at AR protein [2], 65%.

Take `CCOC1(CN2CCC3(CC2)COc2c3ccc3c2C(=O)N(C2CCC(=O)NC2=O)C3=O)CCN(c2ccc(C(=O)N[C@H]3CC[C@H](Oc4ccc(C#N)c(C(F)(F)F)c4)CC3)nn2)CC1` (stereo partly drawn) [Compound 242]: the IC50 was 94 nM in the experiment with VCaP cells (setting [3]) and 640 nM with LNCaP FGC cells (setting [6]). For the same compound, the inhibition at 0.01 µM at AR protein [1] (setting [4]) is -18%; on AR protein [2] it was -5%. The results for the inhibition at 0.1 µM on AR protein [1] (setting [5]) and on AR protein [2] were 11% and 15%, respectively.

`N#Cc1ccc(O[C@H]2CC[C@H](NC(=O)c3ccc(N4CCC5(CC4)CC(N4CCC6(CC4)COc4cc7c(cc4C6)C(=O)N(C4CCC(=O)NC4=O)C7=O)C5)nn3)CC2)cc1Cl` (stereo partly drawn) [Compound 71]: the figures for the IC50 in the experiment on VCaP cells (setting [3]) and in the experiment with LNCaP FGC cells (setting [6]) were 160 nM and 500 nM, respectively. In addition, the inhibition at 0.01 µM on AR protein [1] (setting [4]) was 37%; on AR protein [2], 54%. In addition, the inhibition at 0.1 µM at AR protein [1] (setting [5]) was found to be 71%; on AR protein [2] it was 66%.

As for `N#Cc1ccc(O[C@H]2CC[C@H](NC(=O)c3ccc(N4CC[C@H](CN5CCC6(CCc7cc8c(cc7O6)C(=O)N(C6CCC(=O)NC6=O)C8=O)CC5)C4)nn3)CC2)cc1Cl` (stereo partly drawn) [Compound 22], the IC50 was 230 nM in the experiment on VCaP cells (setting [3]) and 600 nM in the experiment on LNCaP FGC cells (setting [6]). For the same compound, the inhibition at 0.01 µM at AR protein [1] (setting [4]) came out at 71%; at AR protein [2], 58%. For the same compound, the inhibition at 0.1 µM on AR protein [1] (setting [5]) was 84%; on AR protein [2], 64%.

On to `N#Cc1ccc(O[C@H]2CC[C@H](NC(=O)c3ccc(N4CCC(CN5CCC6(CCc7cc8c(cc7O6)C(=O)N(C6CCC(=O)NC6=O)C8)CC5)CC4)nn3)CC2)cc1Cl` (stereo partly drawn) [Compound 44], for which the IC50 came to 2.5 nM in the experiment with VCaP cells (setting [3]) and 1140 nM in the experiment with LNCaP FGC cells (setting [6]). Moreover, the values for the inhibition at 0.01 µM at AR protein [1] (setting [4]) and on AR protein [2] were 85% and 79%, respectively. Also, the inhibition at 0.1 µM at AR protein [1] (setting [5]) stood at 84%; on AR protein [2], 83%.

Regarding `N#Cc1ccc(O[C@H]2CC[C@H](NC(=O)c3ccc(N4CC5(CCC(N6CCC7(CCc8cc9c(cc8O7)C(=O)N(C7CCC(=O)NC7=O)C9=O)CC6)CC5)C4)nn3)CC2)cc1Cl` (stereo partly drawn) [Compound 33], the IC50 in the experiment on VCaP cells (setting [3]) was determined as 1700 nM; with LNCaP FGC cells (setting [6]), 2210 nM. For the same compound, the figures for the inhibition at 0.01 µM on AR protein [1] (setting [4]) and on AR protein [2] were 27% and 49%, respectively. Besides, the results for the inhibition at 0.1 µM on AR protein [1] (setting [5]) and at AR protein [2] were 61% and 52%, respectively.
